# Patent US20210368837A1, “BOEHMERIA NIVEA COMPOSITIONS AND METHODS FOR TASTE MODULATION” (INTERNATIONAL FLAVORS & FRAGRANCES INC., priority 2018, published 2021)
# What was measured:
# [1] = Comparison of sweetness and mouthfeel enhancement and off-flavor masking of sebacic acid with analogs; details: at 2 ppm; analogs: adipic, pimelic, suberic, undecanedioic, dodecanedioic, 1,11-undecanedicarboxylic, tetradecanedioic, hexadecanedioic acid
# [2] = Descriptive sensory evaluation of traumatic acid and 3-dodecenedioic acid in sugar water; details: 5 ppm in sugar water (4% sucrose), summary statement
# Experimental: Sugar water (4% sucrose in drinking water) was prepared and used as a base solution. Traumatic acid (purchased from Cayman Chemical Company) and 3-dodecenedioic acid (isolated from a B. nivea extract) were added to the sugar water and taste descriptive sensory evaluations were performed (Table 2).
# [3] = Descriptive sensory evaluation of sebacic acid in different applications
# Experimental: Descriptive sensory evaluations were carried out using different amounts of sebacic acid in different applications.
# [4] = Descriptive sensory evaluation of traumatic acid in different applications
# Experimental: Descriptive sensory evaluations were carried out using different amounts of traumatic acid in different applications.
SMILES,"Sweetness and mouthfeel enhancement as well as off-flavor masking, compared among dicarboxylic acids [1]",Enhancement of sweetness and mouthfeel of sugar water [2],Taste Evaluation ([3]; sebacic acid 40 ppm in 3% Sugar + 0.05% Citric Acid Water Solution),Taste Evaluation ([3]; sebacic acid 40 ppm in Water),Taste Evaluation ([4]; traumatic acid 40 ppm in 3% Sugar + 0.05% Citric Acid Water Solution),Taste Evaluation ([4]; traumatic acid 40 ppm in Water)
"O=C(O)CC=CCCCCCCCC(=O)O [3-Dodecenedioic acid, 3-dodecenedioic acid]",the strongest and the longest-lasting effect,enhanced the sweetness and mouthfeel of sugar water,,,,
"O=C(O)CCCCCCCCC(=O)O [Sebacic Acid, decanedioic acid]",,,Fatty and oily,Fatty and oily,,
"O=C(O)C=CCCCCCCCCC(=O)O [Traumatic acid, 2-dodecenedioic acid]",the strongest and the longest-lasting effect,enhanced the sweetness and mouthfeel of sugar water,,,Fatty and oily,Fatty and oily
